From ChEMBL document CHEMBL6178017, “Intercepting the Downstream of the Estrogen Receptor Signaling Pathway: Discovery of a Potent and Efficient SRC-3 PROTAC Degrader for Overcoming Endocrine Resistance Breast Cancer” (J Med Chem, 2025) come the findings set out here.

The structures appear in SMILES notation. Calls of active or inactive are those of the source. The rule behind the calls is not given here.

Experiment [1] is described as follows: Induction of apoptosis in tamoxifen-resistant human LCC2 cells assessed as late apoptotic cells incubated for 48 hrs by AnnexinV-FITC/PI staining based flow cytometry (reference value: 4.83%). It counts as functional, Tamoxifen-resistant LCC2 cell. (In flow cytometry, cells or beads pass a laser one at a time.)
Experiment [2] can be described thus: Induction of apoptosis in tamoxifen-resistant human LCC2 cells assessed as viable cells incubated for 48 hrs by AnnexinV-FITC/PI staining based flow cytometry (reference value: 88.09%). Format: functional, Tamoxifen-resistant LCC2 cell.
Experiment [3] has as its system MCF7. Put plainly: Induction of SRC-3 degradation in human MCF7 cells at 1 uM incubated for 24 hrs by immunoblot analysis relative to control. It counts as cell-based. (In general: A western blot detects proteins with antibodies after separation by electrophoresis.)
Experiment [4] relates to MCF7. As to the kind of experiment: Antiproliferative activity against human MCF7 cells harboring ER-alpha Y537S mutant assessed as inhibition of cell growth by CCK8 assay. It counts as functional, cell-based. A general note: Tetrazolium assays rely on reduction of a dye to a coloured formazan, in cell work by metabolically active cells.
Experiment [5] can be described thus: Induction of apoptosis in tamoxifen-resistant human LCC2 cells assessed as necrotic cells incubated for 48 hrs by AnnexinV-FITC/PI staining based flow cytometry (reference value: 1.16%). Format: functional, Tamoxifen-resistant LCC2 cell.
Experiment [6] deals with MCF7. Put plainly: Antiproliferative activity against human MCF7 cells harboring ER-alpha D538G mutant assessed as inhibition of cell growth by CCK8 assay. Format: functional, cell-based.
Experiment [7] deals with MCF7. Put plainly: Induction of ER-alpha degradation in human MCF7 cells at 1 uM incubated for 24 hrs by immunoblot analysis relative to control. It counts as cell-based.
Another experiment concerns Mus musculus. As to the kind of experiment: In vivo PROTAC activity at CRBN/SRC-3 in Balb/c mouse xenografted with tamoxifen-resistant human LCC2 cells assessed as induction of SRC-3 degradation in tumor tissues at 5 uM/Kg, ip administered once every 2 days for 23 days and measured on day 25 by western blot analysis. It counts as functional, organism-based. The note with it: time 25.0 day.

For experiment [8], the system named is MCF7. Put plainly: Antiproliferative activity against human MCF7 cells assessed as inhibition of cell growth by CCK8 assay. Format: functional, cell-based.
The nature of experiment [9]: Induction of apoptosis in tamoxifen-resistant human LCC2 cells assessed as early apoptotic cells incubated for 48 hrs by AnnexinV-FITC/PI staining based flow cytometry (reference value: 5.92%). It counts as functional, Tamoxifen-resistant LCC2 cell.
Experiment [10] can be described thus: Antiproliferative activity against tamoxifen-resistant human LCC2 cells assessed as inhibition of cell growth by CCK8 assay. It counts as functional, cell-based.

Regarding `C[C@]12CC[C@@H]3c4ccc(O)cc4C[C@@H](CCCCCCCCC[S+]([O-])CCCC(F)(F)C(F)(F)F)[C@H]3[C@@H]1CC[C@@H]2O` (stereo partly specified) [FULVESTRANT], the Activity in [1] came out at 12.06%; in experiment [2], 69.81%; in experiment [5], 3.06%; in the experiment on MCF7 [7] it was 86%; in experiment [9], 15.07%. Further, the result in the experiment on MCF7 [3] and in the experiment with Mus musculus was inactive. The 50% inhibitory concentration (IC50) came to 6150 nM in the experiment on MCF7 [4], 580 nM in the experiment on MCF7 [6], 220 nM in the experiment on MCF7 [8] and 470 nM in [10].

Broadly, the IC50 is the point on the concentration scale where inhibition reaches its midpoint.
